According to PubChem BioAssay (NCI):
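Method: 48-hour compound exposure of cells in 96-well plates, five concentrations, linear interpolation of endpoints. At the GI50, growth is halved. The concentration for full growth arrest is given as TGI.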

Legend:
Assay in all cases: NCI tumour cell line growth inhibition, 48 h
SK-OV-3 ovarian = system: SK-OV-3 ovarian
SK-MEL-5 melanoma = system: SK-MEL-5 melanoma
K-562 leukemia = system: K-562 leukemia
UACC-62 melanoma = system: UACC-62 melanoma
A549 NSCLC = system: A549 NSCLC
OVCAR-3 ovarian = system: OVCAR-3 ovarian
CCRF-CEM leukemia = system: CCRF-CEM leukemia
SF-539 CNS = system: SF-539 CNS
OVCAR-8 ovarian = system: OVCAR-8 ovarian
NCI-H522 lung = system: NCI-H522 lung

O=C(c1ccc2ccccc2c1)c1c(C(F)(F)F)n([O-])c2cc(F)c(F)cc2[n+]1=O
GI50 (SK-OV-3 ovarian): 14.5 µM
TGI (SK-OV-3 ovarian): 27.9 µM
GI50 (SK-MEL-5 melanoma): 4.84 µM
TGI (SK-MEL-5 melanoma): 18.3 µM
GI50 (K-562 leukemia): 0.314 µM
TGI (K-562 leukemia): 1.44 µM
GI50 (UACC-62 melanoma): 2.75 µM
TGI (UACC-62 melanoma): 6.62 µM
GI50 (A549 NSCLC): 4.33 µM
TGI (A549 NSCLC): 16.4 µM
GI50 (OVCAR-3 ovarian): 1.46 µM
TGI (OVCAR-3 ovarian): 2.98 µM
GI50 (CCRF-CEM leukemia): 1.33 µM
TGI (CCRF-CEM leukemia): 3.63 µM
GI50 (SF-539 CNS): 2.21 µM
TGI (SF-539 CNS): 3.98 µM

COc1ccc2c(c1)C(=O)c1c-2n(CCCN=[N+]=[N-])c(=O)c2cc(N(C)C)ccc12
GI50 (SK-OV-3 ovarian): > 100 µM
TGI (SK-OV-3 ovarian): > 100 µM
GI50 (SK-MEL-5 melanoma): 23.8 µM
TGI (SK-MEL-5 melanoma): > 100 µM
GI50 (OVCAR-8 ovarian): 84.6 µM
TGI (OVCAR-8 ovarian): > 100 µM
GI50 (K-562 leukemia): > 100 µM
TGI (K-562 leukemia): > 100 µM
GI50 (NCI-H522 lung): 11.2 µM
TGI (NCI-H522 lung): 92.4 µM
GI50 (UACC-62 melanoma): > 100 µM
TGI (UACC-62 melanoma): > 100 µM
GI50 (A549 NSCLC): > 100 µM
TGI (A549 NSCLC): > 100 µM
GI50 (OVCAR-3 ovarian): > 100 µM
TGI (OVCAR-3 ovarian): > 100 µM
GI50 (SF-539 CNS): 17.6 µM
TGI (SF-539 CNS): > 100 µM

FC(F)(F)c1cc(-c2nnc3n2N=C(N2CCCC2)CS3)cc(C(F)(F)F)c1
GI50 (SK-OV-3 ovarian): 14.3 µM
TGI (SK-OV-3 ovarian): > 50 µM
GI50 (SK-MEL-5 melanoma): > 50 µM
TGI (SK-MEL-5 melanoma): > 50 µM
GI50 (OVCAR-8 ovarian): 32.9 µM
TGI (OVCAR-8 ovarian): > 50 µM
GI50 (K-562 leukemia): > 50 µM
TGI (K-562 leukemia): > 50 µM
GI50 (NCI-H522 lung): 24 µM
TGI (NCI-H522 lung): > 50 µM
GI50 (UACC-62 melanoma): > 50 µM
TGI (UACC-62 melanoma): > 50 µM
GI50 (OVCAR-3 ovarian): 5.27 µM
TGI (OVCAR-3 ovarian): 28.8 µM
GI50 (CCRF-CEM leukemia): > 50 µM
TGI (CCRF-CEM leukemia): > 50 µM
GI50 (SF-539 CNS): 34 µM
TGI (SF-539 CNS): > 50 µM

CCc1cccc(C(C)C)c1NC(=O)C(=O)CC(=O)c1c(C)n([O-])c2ccccc2[n+]1=O
TGI (SK-OV-3 ovarian): > 100 µM
TGI (SK-MEL-5 melanoma): > 100 µM
TGI (OVCAR-8 ovarian): > 100 µM
TGI (K-562 leukemia): > 100 µM
TGI (NCI-H522 lung): > 100 µM
TGI (UACC-62 melanoma): > 100 µM
TGI (A549 NSCLC): > 100 µM
TGI (CCRF-CEM leukemia): > 100 µM
TGI (SF-539 CNS): > 100 µM

Cc1c(S(C)(=O)=O)c(-c2cc(F)cc(N3CCN(c4ccc(NS(=O)(=O)c5ccc(N[C@H](CCN6CCC(C(=O)OCCCP(=O)(O)O)CC6)CSc6ccccc6)c(S(=O)(=O)C(F)(F)F)c5)cc4)CC3)c2)c(-c2ccc(Cl)cc2)n1C(C)C
GI50 (SK-OV-3 ovarian): > 100 µM
TGI (SK-OV-3 ovarian): > 100 µM
GI50 (SK-MEL-5 melanoma): > 100 µM
TGI (SK-MEL-5 melanoma): > 100 µM
GI50 (OVCAR-8 ovarian): > 100 µM
TGI (OVCAR-8 ovarian): > 100 µM
GI50 (NCI-H522 lung): > 100 µM
TGI (NCI-H522 lung): > 100 µM
GI50 (UACC-62 melanoma): > 100 µM
TGI (UACC-62 melanoma): > 100 µM
GI50 (A549 NSCLC): > 100 µM
TGI (A549 NSCLC): > 100 µM
GI50 (OVCAR-3 ovarian): > 100 µM
TGI (OVCAR-3 ovarian): > 100 µM
GI50 (CCRF-CEM leukemia): 0.456 µM
TGI (CCRF-CEM leukemia): > 100 µM
GI50 (SF-539 CNS): > 100 µM
TGI (SF-539 CNS): > 100 µM

C=CC1[C@H]2COC(C)(C)O[C@@H]2CC(=O)C1(C)C (stereo partly drawn)
TGI (OVCAR-8 ovarian): > 100 µM
TGI (NCI-H522 lung): > 100 µM
TGI (A549 NSCLC): > 100 µM
TGI (SF-539 CNS): > 100 µM

CSC(CC(=O)O)C(=O)O (stereo not drawn)
TGI (SK-OV-3 ovarian): > 100 µM
TGI (SK-MEL-5 melanoma): > 100 µM
TGI (OVCAR-8 ovarian): > 100 µM
TGI (NCI-H522 lung): > 100 µM
TGI (UACC-62 melanoma): > 100 µM
TGI (A549 NSCLC): > 100 µM
TGI (OVCAR-3 ovarian): > 100 µM
TGI (CCRF-CEM leukemia): > 100 µM
TGI (SF-539 CNS): > 100 µM

O=C(/C=C/c1ccccc1)CC1OC(=O)c2ccccc21 (stereo not drawn)
TGI (SK-OV-3 ovarian): > 100 µM
TGI (SK-MEL-5 melanoma): > 100 µM
TGI (OVCAR-8 ovarian): > 100 µM
TGI (K-562 leukemia): > 100 µM
TGI (NCI-H522 lung): > 100 µM
TGI (UACC-62 melanoma): 66.5 µM
TGI (A549 NSCLC): > 100 µM
TGI (CCRF-CEM leukemia): > 100 µM
TGI (SF-539 CNS): > 100 µM

CS(=O)(=O)OCCN1CCN(C(=O)c2cccc3c(Nc4ccc(S(=O)(=O)N=C(N)N)cc4)c4ccccc4nc23)CC1
TGI (SK-OV-3 ovarian): > 100 µM
TGI (SK-MEL-5 melanoma): > 100 µM
TGI (OVCAR-8 ovarian): > 100 µM
TGI (K-562 leukemia): > 100 µM
TGI (UACC-62 melanoma): > 100 µM
TGI (A549 NSCLC): > 100 µM
TGI (OVCAR-3 ovarian): > 100 µM
TGI (CCRF-CEM leukemia): > 100 µM
TGI (SF-539 CNS): > 100 µM

Cc1ccc(S(=O)(=O)NCCNC2=CC(=O)c3nc4ccccc4c4ccnc2c34)cc1
GI50 (SK-OV-3 ovarian): 33.1 µM
TGI (SK-OV-3 ovarian): > 100 µM
GI50 (SK-MEL-5 melanoma): 14.6 µM
TGI (SK-MEL-5 melanoma): 33.9 µM
GI50 (OVCAR-8 ovarian): 19.5 µM
TGI (OVCAR-8 ovarian): 72.7 µM
GI50 (K-562 leukemia): 25 µM
TGI (K-562 leukemia): > 100 µM
GI50 (NCI-H522 lung): 15 µM
TGI (NCI-H522 lung): 37.3 µM
GI50 (UACC-62 melanoma): 20.6 µM
TGI (UACC-62 melanoma): 44.5 µM
GI50 (A549 NSCLC): 15.2 µM
TGI (A549 NSCLC): 44.5 µM
GI50 (OVCAR-3 ovarian): 17.5 µM
TGI (OVCAR-3 ovarian): 46.4 µM
GI50 (SF-539 CNS): 19.1 µM
TGI (SF-539 CNS): 38.3 µM

O=Nc1c(-c2c(O)[nH]c3ccc([N+](=O)[O-])cc23)[nH]c2ccc(O)cc12
GI50 (SK-MEL-5 melanoma): 0.189 µM
TGI (SK-MEL-5 melanoma): 0.414 µM
GI50 (OVCAR-8 ovarian): 0.36 µM
TGI (OVCAR-8 ovarian): > 100 µM
GI50 (K-562 leukemia): 0.456 µM
TGI (K-562 leukemia): > 37.7 µM
GI50 (NCI-H522 lung): 0.38 µM
TGI (NCI-H522 lung): 2.67 µM
GI50 (UACC-62 melanoma): 0.211 µM
TGI (UACC-62 melanoma): 0.439 µM
GI50 (A549 NSCLC): 0.674 µM
TGI (A549 NSCLC): > 60.6 µM
GI50 (OVCAR-3 ovarian): 0.367 µM
TGI (OVCAR-3 ovarian): 3.04 µM
GI50 (CCRF-CEM leukemia): 0.11 µM
TGI (CCRF-CEM leukemia): 12.2 µM
GI50 (SF-539 CNS): 0.258 µM
TGI (SF-539 CNS): 0.827 µM

COc1cc(/C=C\c2ccc(C)cc2)cc(OC)c1OC
TGI (K-562 leukemia): 11.7 µM
TGI (NCI-H522 lung): 0.013 µM
TGI (A549 NSCLC): > 100 µM
TGI (OVCAR-3 ovarian): 0.00442 µM
TGI (CCRF-CEM leukemia): < 0.044 µM
TGI (SF-539 CNS): 0.0218 µM

CC(=O)N[C@@H]1C(O)CN2C(=O)C(=O)O[C@H](C(O)CO)[C@@H]12 (stereo partly drawn)
TGI (SK-OV-3 ovarian): > 100 µM
TGI (OVCAR-8 ovarian): > 100 µM
TGI (K-562 leukemia): > 100 µM
TGI (NCI-H522 lung): > 100 µM
TGI (A549 NSCLC): > 100 µM
TGI (OVCAR-3 ovarian): > 100 µM
TGI (CCRF-CEM leukemia): > 100 µM
TGI (SF-539 CNS): > 100 µM

CCCCCCCCCCCCCCN
TGI (SK-OV-3 ovarian): > 100 µM
TGI (SK-MEL-5 melanoma): > 100 µM
TGI (OVCAR-8 ovarian): > 100 µM
TGI (K-562 leukemia): > 100 µM
TGI (NCI-H522 lung): > 100 µM
TGI (UACC-62 melanoma): > 100 µM
TGI (OVCAR-3 ovarian): > 100 µM
TGI (CCRF-CEM leukemia): > 100 µM

Nc1nc2c(c(=O)[nH]1)NC(CO)CN2 (stereo not drawn)
TGI (SK-OV-3 ovarian): > 100 µM
TGI (OVCAR-8 ovarian): > 100 µM
TGI (K-562 leukemia): > 100 µM
TGI (NCI-H522 lung): > 100 µM
TGI (UACC-62 melanoma): > 100 µM
TGI (A549 NSCLC): > 100 µM
TGI (OVCAR-3 ovarian): > 100 µM
TGI (CCRF-CEM leukemia): > 100 µM
TGI (SF-539 CNS): > 100 µM

O=C(Nc1ccc(F)cc1)c1ccc(NC2=C(Cl)C(=O)N(Cc3ccccc3)C2=O)cc1
GI50 (SK-OV-3 ovarian): 24 µM
TGI (SK-OV-3 ovarian): 68 µM
GI50 (SK-MEL-5 melanoma): 18.5 µM
TGI (SK-MEL-5 melanoma): 63.7 µM
GI50 (OVCAR-8 ovarian): 4.66 µM
TGI (OVCAR-8 ovarian): 30.9 µM
GI50 (K-562 leukemia): 3.79 µM
TGI (K-562 leukemia): 13.7 µM
GI50 (NCI-H522 lung): 7.27 µM
TGI (NCI-H522 lung): 28.8 µM
GI50 (UACC-62 melanoma): 18.1 µM
TGI (UACC-62 melanoma): 38.5 µM
GI50 (A549 NSCLC): 8.68 µM
TGI (A549 NSCLC): 39 µM
GI50 (OVCAR-3 ovarian): 3.59 µM
TGI (OVCAR-3 ovarian): 15.3 µM
GI50 (SF-539 CNS): 11.2 µM
TGI (SF-539 CNS): 26.7 µM

CC(C)CNCC(O)COc1ccc(C(C)(C)c2ccc(OCC(O)CNCC(C)C)cc2)cc1 (stereo not drawn)
GI50 (SK-OV-3 ovarian): 4.09 µM
TGI (SK-OV-3 ovarian): 15.3 µM
GI50 (SK-MEL-5 melanoma): 1.68 µM
TGI (SK-MEL-5 melanoma): 3.05 µM
GI50 (OVCAR-8 ovarian): 2.01 µM
TGI (OVCAR-8 ovarian): 4.42 µM
GI50 (NCI-H522 lung): 1.87 µM
TGI (NCI-H522 lung): 3.82 µM
GI50 (UACC-62 melanoma): 1.82 µM
TGI (UACC-62 melanoma): 3.4 µM
GI50 (A549 NSCLC): 2.08 µM
TGI (A549 NSCLC): 4.84 µM
GI50 (OVCAR-3 ovarian): 1.92 µM
TGI (OVCAR-3 ovarian): 4.15 µM
GI50 (CCRF-CEM leukemia): 2.38 µM
TGI (CCRF-CEM leukemia): 6.18 µM
GI50 (SF-539 CNS): 1.71 µM
TGI (SF-539 CNS): 3.23 µM
